Columns and labels:
rat bladder strips = assay: Isometric tension recording of bladder smooth muscle strips (ACh-induced contraction); settings: 100 μM, 30 min pre-incubation, 1 μM ACh, compared to vehicle, n=6
Procedure: […] tension recording of UBSM experiment was performed by a known method (Dela Pena et al. 2009; Kullmann et al. 2014). In short, a male Sprague-Dawley rat (300-350 g) was euthanized by CO2 choking. Then, the bladder of the rat was excised. The bladder was longitudinally divided into four strips (approximately 2×8 mm). Each separated strip was clipped between a static mount and a force-displacement transducer. Then, the clipped strips were suspended in a temperature-controlled (37° C.) organ bath containing 10 ml of Krebs solution ((mM): 118.4 NaCl, 4.7 KCl, 1.2 KH2PO4, 1.2 MgSO4, 25.0 NaHCO3, 2.5 CaCl2, and 12.2 glucose; pH 7.35-7.40). Then, a mixture of 95% 02 and 5% CO2 was used to continuously generate bubbles in the organ bath. Each UBSM strip was stretched to 1.0 gram of an optimal isometric tension, and was equilibrated for 60 minutes. […] After reaching the equilibration, the strips were stabilized via repeated application of acetylcholine (1 μM) until a continuous reaction was recorded. […] Relaxation was expressed as a percentage reduction in the tension due to acetylcholine-induced contraction. […] Changes in the isometric tension were recorded using a Power Lab Data Acquisition System (ADInstruments) associated with a computer with Lab Chart Software (Version 7, AD Instruments) installed therein. […]

Wistar Kyoto rat (WKY) = assay: Voiding behavior of Wistar Kyoto rat (WKY); assay type: in vivo; settings: up to 5 mg/kg
Procedure: The voiding frequency was monitored for 3 hours. FIG. 9B represents a total number of voidings. Each symbol or bar represents average±SEM of 5 (WKY) or 7 (SHR) animals (*** P<0.001).
The cumulative voiding frequency is shown in FIG. 9A for WKY and SHR orally administered with kurarinone. The administration of kurarinone may allow distinct differences in voiding frequency to be evident between WKY and SHR. […] In the WKY control rat, the decrease of the voiding frequency was not observed.

[1] = target: T1, mutant BKCa channel (G803D/N806K) (Rattus norvegicus, UniProt Q62976, G803D/N806K); assay: Cell-based TI+ fluorescence (FluxOR) assay in AD-293 cells
T1 construct: expressed in transfected cells
Procedure: AD-293 cells (Lee et al., 2013), as a modified HEK293 cell for expressing a mutant BKCa channel, were placed in DMEM (Dulbecco's Modified Eagle's medium) supplemented with 10% fetal bovine serum and 1 mg/ml geneticin (Gibco) as an antibiotic. The cells were cultured under a humidified condition of 5% CO2 and 37° C.
AD-293 cells stably expressing the mutant BKCa channel (G803D/N806K) were used for cell-based assays (Lee et al., 2013). Approximately 20,000 cells/well were inoculated on a black-wall assay plate (Corning Incorporated) coated with poly-D-lysine (Sigma-Aldrich), which is 96-well clear-bottom. A FluxOR™ […] (Invitrogen) was used for initial screening of compound libraries, and for further assay of candidate compounds. Experiments were performed according to the manufacturer's following guidelines: growth medium was replaced with 80 μl/well of loading buffer containing FluxOR™ fluorescent dye, and incubation was carried out for 1 hour under a light-free condition. After the incubation, the loading buffer was replaced with 100 μl/well of assay buffer containing various concentrations of compounds of interest, followed by incubation for 20 minutes to 30 minutes. DMSO (1%) was vehicle and the vehicle was used for all test compounds. CTBIC (Cormemis et al. 2005; Lee et al. 2012), previously identified as an activator of the BKCa channel, was used as a positive control. For fluorescence measurements, synergy TM H1 hybrid multi-mode microplate reader (BioTek Instrument Inc., Winnoski, Vt.) and Cen5 software was used in initial screening. For additional assays, Flexstation 3 multi-mode microplate reader (Molecular Devices) and SoftMax®Pro software were used, respectively. A fluorescence signal was obtained at an excitation wavelength of 485 nm and an emission wavelength of 528 nm. Membrane polarization was induced by a stimulus buffer containing thallium ion. The fluorescence signal was measured under two conditions: every 10 seconds for 2 minutes before treating the stimulation buffer and then every 10 seconds for 3 minutes after addition of stimulation buffer for synergy H1, and every 2 seconds for 20 seconds before stimulus buffer treatment, and then every 2 seconds for 160 seconds after adding the stimulus buffer for FlexStation 3.
A fluorescence signal change was measured based on a relative fluorescence unit (RFU) or F/F0 where F0 is ta minimum fluorescence value of each fluorescence trace. To quantitatively compare activation effects of kurarinone and its derivatives, an initial fluorescence increase was calculated using first three points after treatment with the stimulation buffer, and a linear slope was predicted using OriginPro 9.1 (OriginLab Corp., Northampton, Mass.).

T1 sequence (Q62976 whole entry G803D/N806K): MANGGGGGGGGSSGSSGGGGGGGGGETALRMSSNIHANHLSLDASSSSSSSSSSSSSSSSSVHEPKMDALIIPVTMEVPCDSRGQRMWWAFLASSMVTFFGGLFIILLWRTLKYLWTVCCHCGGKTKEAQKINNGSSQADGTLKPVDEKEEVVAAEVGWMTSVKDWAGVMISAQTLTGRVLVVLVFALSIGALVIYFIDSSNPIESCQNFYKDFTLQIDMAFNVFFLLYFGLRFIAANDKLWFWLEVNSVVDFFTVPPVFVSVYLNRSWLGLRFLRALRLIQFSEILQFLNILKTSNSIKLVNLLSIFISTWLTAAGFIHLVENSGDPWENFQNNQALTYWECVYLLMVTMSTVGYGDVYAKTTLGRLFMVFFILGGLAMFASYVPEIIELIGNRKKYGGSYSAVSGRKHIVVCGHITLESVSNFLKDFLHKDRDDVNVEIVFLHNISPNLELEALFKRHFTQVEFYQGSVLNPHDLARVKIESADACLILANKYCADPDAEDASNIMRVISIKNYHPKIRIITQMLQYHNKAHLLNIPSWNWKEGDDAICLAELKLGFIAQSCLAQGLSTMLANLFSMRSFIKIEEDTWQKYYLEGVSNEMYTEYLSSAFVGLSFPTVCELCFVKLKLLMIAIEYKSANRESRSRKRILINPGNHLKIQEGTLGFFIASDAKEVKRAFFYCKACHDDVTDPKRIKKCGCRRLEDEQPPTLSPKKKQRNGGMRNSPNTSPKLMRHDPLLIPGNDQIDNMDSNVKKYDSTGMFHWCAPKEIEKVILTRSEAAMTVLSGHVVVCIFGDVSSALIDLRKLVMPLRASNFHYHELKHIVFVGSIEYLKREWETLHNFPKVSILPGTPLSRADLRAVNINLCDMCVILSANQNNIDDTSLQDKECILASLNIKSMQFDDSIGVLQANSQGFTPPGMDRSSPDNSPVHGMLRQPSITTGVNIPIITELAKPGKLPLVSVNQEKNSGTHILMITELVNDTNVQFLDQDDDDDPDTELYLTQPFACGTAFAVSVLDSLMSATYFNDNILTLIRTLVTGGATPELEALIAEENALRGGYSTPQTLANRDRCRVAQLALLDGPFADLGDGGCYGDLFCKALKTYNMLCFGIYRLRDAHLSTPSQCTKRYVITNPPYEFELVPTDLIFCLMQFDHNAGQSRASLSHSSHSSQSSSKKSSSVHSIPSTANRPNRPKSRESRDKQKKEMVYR

C=C(C)[C@H](CC=C(C)C)Cc1c(O)cc(OC)c2c1O[C@H](c1ccc(O)cc1O)CC2=O [kurarinone]
relaxation effect on ACh-induced contraction (rat bladder strips): 58.2±6.2% | effect on voiding frequency (Wistar Kyoto rat (WKY)): not affected | TI+ fluorescence increase in library screening ([1]; 5 μM final concentration, compared to vehicle (1% DMSO), among 794 natural compounds): strongest fluorescence increase | TI+-fluorescence enhancement (initial RFU increase) ([1]; 10 μM, n=4): strong fluorescence increase | concentration dependence of TI+ fluorescence ([1]; 3, 5, 10, 30 μM): increased in a dose-dependent manner

Reference: patent publication US11517556B2, “Composition for BKCa channel activation” (GWANGJU INSTITUTE OF SCIENCE AND TECHNOLOGY, priority 2016, dated 2022)
